Data reported in paper PMC8159111 (Pathogens, 2021).

How the values were obtained:
Type in all cases: cell-based
[1] = Cytotoxicity (CC50) determination, crystal violet assay; settings: African green monkey, Vero E6 cells, Table 4 prints no unit, Figure 4 prints μM, read-out: CC50 (half-maximal cytotoxic concentration)
Experimental: To assess the half maximal cytotoxic concentration (CC50), stock solutions of the test compounds were prepared in 10% DMSO in ddH2O and diluted further to the working solutions with DMEM. The cytotoxic activity of the extracts was tested in VERO-E6 cells by using crystal violet assay as previously described with minor modifications. Briefly, the cells were seeded in 96-well plates (100 µL/well at a density of 3 × 10^5 cells/mL) and incubated for 24 h at 37 °C in a humidified 5% CO2 incubator. After 24 h, cells were treated with various concentrations of the tested compounds in triplicates. Seventy two hours later, the supernatant was discarded, and cell monolayers were fixed with 10% formaldehyde for 1 h at room temperature (RT). The fixed monolayers were then dried and stained with 50 µL of 0.1% crystal violet for 20 min on a bench rocker at RT. The monolayers were then washed, dried and the crystal violet dye in each well was then dissolved with 200 µL of methanol for 20 min on a bench rocker at RT. The absorbance of crystal violet solutions was measured at λmax 570 nm as a reference wavelength using a multi-well plate reader.

[2] = test system: SARS-CoV-2 "NRC-03-nhCoV" virus; test: Inhibitory concentration 50 (IC50) determination, reduction of virus-induced cytopathic effect in Vero-E6 cells; settings: Severe acute respiratory syndrome coronavirus 2, Vero C1008, 72 h, against NRC-03-nhCoV in Vero E6, 72 h, CPE reduction, crystal violet; unit not given in Table 4 and Figure 6, Figure 4 and text print μM; read-out: IC50 (half-maximal inhibitory concentration)
Experimental: The IC50 values for the tested compounds were determined as previously described, with minor modifications. Briefly, in 96-well tissue culture plates, 2.4 × 10^4 Vero-E6 cells were distributed in each well and incubated overnight at a humidified 37°C incubator under 5% CO2 condition. The cell monolayers were then washed once with 1× PBS. An aliquot of the SARS-CoV-2 “NRC-03-nhCoV” virus containing 100 TCID50 was incubated with serial diluted compounds and kept at 37 °C for 1 h. The Vero-E6 cells were treated with virus/compound mix and co-incubated at 37 °C in a total volume of 200 µL per well. Untreated cells infected with virus represented the virus control; however, cells that were not treated and not infected were the cell control. Following incubation at 37 °C in 5% CO2 incubator for 72 h, the cells were fixed with 100 μL of 10% paraformaldehyde for 20 min and stained with 0.5% crystal violet in distilled water for 15 min at RT. The crystal violet dye was then dissolved using 100 μL of absolute methanol per well and the optical density of the color was measured at 570 nm using the Anthos Zenyth 200 rt plate reader (Anthos Labtec Instruments, Heerhugowaard, the Netherlands).

[3] = test system: MERS-CoV virus "NRCE-HKU270"; test: microbe, parasite or virus in culture; settings: Middle East respiratory syndrome-related coronavirus, Vero C1008, read-out: IC50 (half-maximal inhibitory concentration)
[4] = test system: NRC-03-nhCoV (SARS-CoV-2) in Vero-E6 cells; test: Mode of antiviral action, plaque infectivity reduction assay (adsorption, replication, virucidal)
Experimental: To investigate whether the tested compound with high selectivity index and antiviral activity against NRC-03-nhCoV affect (a) viral adsorption, (b) viral replication or (c) viricidal effect, a plaque infectivity reduction assay was performed according to the following protocols: • (a) Viral adsorption mechanism
The viral adsorption mechanism was assayed according to a protocol by Zhang et al. with minor modifications. Vero-E6 cells were cultivated in a 6-well plate (10^5 cells/mL) for 24 h at 37 °C. Each tested drug was applied in 500 µL of medium without supplements and co-incubated with the cells for 2 h at 4 °C. The non-absorbed drug in the applied inocula was removed by washing cells three times with 1x PBS. The NRC-03-nhCoV was diluted to a countable range “10^−4” and co-incubated with the pretreated cells. About 1 h post-incubation, the inocula were removed and 3 mL of agarose overlay (1:1 mixture of warmed 2× plaque media and a stock solution of heated 2% agarose) were added. The plates were kept at room temperature to solidify and then incubated at 37 °C to allow the formation of viral plaques. The plaques were fixed using 10% formaldehyde, stained using crystal violet (1% crystal violet in 20% ethanol and distilled H2O), washed with rinse water and dried to calculate the percentage reduction in plaque formation compared to control wells, which comprised untreated Vero-E6 cells directly infected with NRC-03-nhCoV.
The impact of the tested drug on viral replication was determined as previously described. Vero-E6 cells were cultivated in a 6-well plate (10^5 cell/mL) for 24 h at 37 °C. The NRC-03-nhCoV of the countable range was inoculated directly to the cells and incubated for 1 h at 37 °C. The inocula containing the non-adsorbed virus were removed by washing infected cell monolayers three times with 1× PBS. The analyzed compound was then applied in varying concentrations to infected cells for another 1 h contact time at 37 °C. After removing the inocula containing the tested drug, agarose overlay were added to the cells. […]

In the case of CC1(C)CCC2(C(=O)OCc3cc(-c4ccc(Cl)cc4)no3)CCC3(C)C(=CCC4C5(C)CC(O)C(O)C(C)(C)C5CCC43C)C2C1 (stereo not drawn) [Compound 17, (3-(4-chlorophenyl)isoxazol-5-yl) methyl-(2α,3β)-2,3-dihydroxyolean-12-en-28-oate], the CC50 at 72 h [1] is reported as 142 µM, the IC50 [2] is reported as 4.12 µM and the IC50 [3] is reported as 6.25 µM. The “effect on viral adsorption” value ([4]; Vero-E6 cells pretreated with compound 2 h at 4 °C) was “efficiently impair viral replication and adsorption”, the “effect on viral replication” value ([4]; compound applied to infected Vero-E6 cells after adsorption) was “efficiently impair viral replication” and the virucidal effect ([4]; virus mixed with compound 1 h before infection of Vero-E6) was “virucidal effect”.
